Source: US20210254101A1, “METHODS FOR TREATING SPINAL CORD INJURY” (THE CHILDREN'S MEDICAL CENTER CORPORATION, priority 2018, published 2021)

What was measured:
[1] = tested on: mice with staggered lesions; experiment: Basso Mouse Scale (BMS) open field locomotion after staggered T7/T10 lateral hemisections; format: in vivo
Method: A staggered lesion paradigm was optimized in which two lateral hemisections were performed at the thoracic (T) 7 and T10 levels simultaneously (FIGS. 1A and 1B), similar to the model previously described (Courtine 2008; van den Brand, 2012). The T10 lesion is a lateral hemisection that ends at the spinal cord midline, while the T7 lesion, contralateral to the T10 lesion, extends slightly beyond the midline (FIG. 1A). With this double hemisection procedure, all descending axons passing T10 are severed, leaving only those crossing the midline between T7 and T10 intact (FIG. 1C). Indeed, by immunohistochemistry with anti-5-HT antibodies, which label serotonergic axons, descending serotonergic axons could be detected in the spinal cord segments between the lesions, but not in the lumbar spinal cord (FIG. 1C). Thus, a relay zone remains between and around the lesions (T7 and T10) where descending axons terminate, and where some propriospinal neurons maintain their connections with lumbar spinal neurons (see herein below).
This double hemisection SCI model was used to seek small molecule compounds that could reactivate the spared, but dormant, spinal connections by monitoring hindlimb motor performance during over-ground locomotion. To this end, daily compound treatment was started 1 week after injury and then monitored the BMS scores approximately 24 hours after the previous day's compound treatment on a weekly basis (FIG. 1D). Behavioral outcomes observed at these time points likely reflect sustained effects of the treatment, which are more clinically relevant.
Surgical Procedures. The procedure of T7 and T10 double lateral hemisection was similar to that described elsewhere (Courtine et al., 2008; van den Brand et al., 2012). Briefly, a midline incision was made over the thoracic vertebrae, followed by a T7-10 laminectomy. For the T7 right side over-hemisection, a scalpel and micro-scissors were carefully used to interrupt the bilateral dorsal column at T7, and ensured no sparing of ventral pathways on the contralateral side (FIG. 1A). For the T10 left hemisection, a scalpel and micro-scissors were carefully used to interrupt only the left side of the spinal cord until the midline. The muscle layers were then sutured, and the skin was secured with wound clips. All animals received post hoc histological analysis, and those with spared 5HT axons at the lumbar spinal cord (L2-5) were excluded for behavioral analysis (FIG. 7).
Behavioral Experiments. Motor function was evaluated with a locomotor open field rating scale on the Basso Mouse Scale (BMS). For transient pharmacological treatments, ten to fifteen minutes (van den Brand et al., 2012) prior to behavioral tests (grounding walking, all of which were performed individually), mice received systematic administration (i.p.) of the neural modulators listed above. It is important to note that with a single intraperitoneal injection, plasma CNO levels peak at 15 min and become very low by 2 h after injection (Guettier et al., 2009). For chronic pharmacological treatments, 24 hours prior to behavioral tests, mice received systematic administration of the compounds listed above. All behavioral tests were completed within 1-3 hours. For detailed hindlimb kinematic analysis, mice from different groups were placed in the MotoRater (TSE Systems, (Zorner et al., 2010)), and all kinematic analysis was performed based on data collected by the MotoRater.

neuropathic pain = conditions: animal models; Gagnon et al., 2013; Ferrini et al., 2017; Knabl et al., 2008; cited from earlier work
[2] = Side effects of compounds tested in the study; format: in vivo, mouse; conditions: even at high doses; data not shown
c-Fos = c-Fos immunoreactivity in spinal cord segments between T7 and T10 after 1 hour walking; format: in vivo, mouse
From the text: In mature neurons, GABA and glycine are inhibitory because they open chloride channels, which allow chloride ion influx leading to hyperpolarization. In contrast, during development, the elevated intracellular chloride levels render GABAA- and glycine-mediated currents depolarizing and generally excitatory. During early postnatal life, KCC2 upregulation in postnatal neurons is crucial for reducing intracellular chloride concentrations, transforming excitation into inhibition (Ben-Ari et al., 2012; Kaila et al., 2014). Thus, injury-induced KCC2 down-regulation (Boulenguez et al., 2010; Cote et al., 2014) would be expected to restore an immature state in which GABA and glycine receptors can depolarize neurons. In this scenario, KCC2 activation in spinal inhibitory neurons would transform local circuits in the relay zone towards a more physiological state, which is more receptive to descending inputs. To examine this, c-Fos immunoreactivity was used as a proxy of neuronal activity in the spinal cord segments between T7 and T10 at 8 weeks after injury, and after walking on a treadmill for 1 hour. In each group, the majority of c-Fos-positive cells in these spinal segments were also positively stained with NeuN, a neuronal marker (FIG. 11A, 11B). In injured mice without treatment, the c-Fos-positive neurons were concentrated in the dorsal horn of the spinal cord (FIG. 5A-5C), perhaps reflecting hypersensitivity to peripheral sensory inputs in these injured mice. […] This KCC2-transformed distribution pattern is similar to what was detected in intact mice, in response to walking (FIG. 5A-5C).
Immunohistochemistry and Imaging. The paraformaldehyde (PFA) fixed tissues were cryo-protected with 30% sucrose and processed using cryostat (section thickness 40 μm for spinal cord). Sections were treated with a blocking solution containing 10% normal donkey serum with 0.5% Triton-100 for 2 hours at room temperature before staining. The primary antibodies (4 □, overnight) used were: rabbit anti-GFAP [DAKO (Z0334), 1:600]; rabbit anti-5-HT [Immunostar (20080), 1:5,000]; chicken anti-GFP [Abcam (ab13970), 1:400]; rabbit anti-RFP [Abcam (ab34771), 1:400]; rabbit anti-PKCγ [Santa Cruz (sc211), 1:100]; rat anti-HA [Sigma (11867423001), 1:200]; rabbit anti-c-Fos [Cell signaling (2250s), 1:100]; and mouse anti-NeuN [Millipore (MAB377), 1:400]. Secondary antibodies (room temperature, 2 h) included: Alexa Fluor 488-conjugated donkey anti chicken and rabbit; and Alexa Fluor 594-conjugated donkey anti rabbit (all from Invitrogen). c-Fos immunoreactivity of spinal neurons was determined as previously described (Courtine et al., 2009), after 1-hour of continuous quadrupedal free walking (intact), stepping (CLP290 or AAV-KCC2 treated mice) or dragging (vehicle or AAV-GFP treated mice). The mice were returned to their cages, and were then anesthetized and sacrificed by intracardial perfusion of 4% PFA (wt/vol) in phosphate buffered saline (PBS) about 2 hours later.

[3] = T8/9, 8 weeks after injury, chronic treatment, FIG. 5A-5C

O=C1N=C(N2CCCCN2)S/C1=C\c1ccc(F)cc1OC(=O)N1CCCC1 [CLP290, [5-Fluoro-2-[(Z)-(2-hexahydropyridazin-1-yl-4-oxo-thiazol-5-ylidene)methyl]phenyl] pyrrolidine-1-carboxylate]
mice that recovered consistent hindpaw plantar placement and weight-bearing stepping ([1]; 9 weeks post staggered injury, FIG. 1F): 80% | additional functional recovery (BMS) from accompanying CLP290 treatment ([1]; Vgat-Cre mice with AAV-FLEX-KCC2, CLP290 versus vehicle, FIG. 10E): did not significantly enhance functional recovery at most time points | time BMS scores remained significantly higher than controls after stopping treatment ([1]; after withdrawal following 10-week treatment, FIG. 1G): 1-2 weeks | stepping ability / functional recovery (BMS), chronic compound treatment ([1]; daily i.p. treatment from 1 week after injury, BMS about 24 h after previous dose, FIG. 1E, 7A): induced sustained functional recovery | time at which functional recovery (BMS) first appeared ([1]; daily i.p. treatment started 1 week after injury, BMS about 24 h after previous dose, FIG. 1E): 4-5 weeks | time from which functional recovery (BMS) became significant ([1]; weeks after treatment, daily i.p. treatment, BMS about 24 h after previous dose, FIG. 1E): 7 weeks | effect on neuropathic pain (neuropathic pain): effectively treat neuropathic pain in animal models | side effects [2]: negligible side effects even at high doses | c-Fos pattern after withdrawal of treatment (c-Fos; 2 weeks after withdrawal, FIGS. 11C and 11D): returned to what seen without treatment | c-Fos-positive neurons in the dorsal horn (laminae I-V) (c-Fos; [3]): a reduction in the dorsal horn | c-Fos-positive neurons in the intermediate/ventral spinal cord (c-Fos; [3]): a significant increase in the intermediate/ventral spinal cord
